In the supplement of paper PMC10307832:

Key:
Assay in all cases: relative viability (nuclei count vs DMSO), 5 days (fraction); higher = more cells survive
CUDC-101 + Pictilisib = compound: C#Cc1cccc(Nc2ncnc3cc(OC)c(OCCCCCCC(=O)NO)cc23)c1 [CUDC-101] + CS(=O)(=O)N1CCN(Cc2cc3nc(-c4cccc5[nH]ncc45)nc(N4CCOCC4)c3s2)CC1 [Pictilisib] (partner 1 µM)
Procedure, shortened: (§1)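 Lung cancer cell lines were pin-tool dosed in 1536-well plates on the day after seeding, with either a lone drug or a fixed anchor-drug dose plus five library-drug doses (not always all listed) in √10 steps. Nuclei were counted on 4× images after 5 days. Relative viability is the ratio of treated-well to vehicle-well nuclei counts, with each value a median of duplicate plates.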

CUDC-101 + Vorinostat = compound: C#Cc1cccc(Nc2ncnc3cc(OC)c(OCCCCCCC(=O)NO)cc23)c1 [CUDC-101] + O=C(CCCCCCC(=O)Nc1ccccc1)NO [Vorinostat] (partner 1 µM)
Procedure, shortened: as §1

[1] = compound: C1=CC=C2C(=C1)N=C(S2)C(C#N)C3=NC(=NC=C3)NCCC4=CN=CC=C4 + Cc1nc(NC(=O)N2CCC[C@H]2C(N)=O)sc1-c1ccnc(C(C)(C)C(F)(F)F)c1 [Alpelisib] (partner 2 µM)
Procedure, shortened: as §1

Vandetanib + Alpelisib = compound: COc1cc2/c(=N/c3ccc(Br)cc3F)nc[nH]c2cc1OCC1CCN(C)CC1 [Vandetanib] + Cc1nc(NC(=O)N2CCC[C@H]2C(N)=O)sc1-c1ccnc(C(C)(C)C(F)(F)F)c1 [Alpelisib] (partner 2 µM)
Procedure, shortened: as §1

| Cell Line | relative viability (CUDC-101 + Pictilisib; first compound 0.01 µM) | relative viability (CUDC-101 + Pictilisib; first compound 0.03162 µM) | relative viability (CUDC-101 + Pictilisib; first compound 0.1 µM) | relative viability (CUDC-101 + Pictilisib; first compound 0.3162 µM) | relative viability (CUDC-101 + Pictilisib; first compound 1 µM) | relative viability (CUDC-101 + Vorinostat; first compound 0.01 µM) | relative viability (CUDC-101 + Vorinostat; first compound 0.03162 µM) | relative viability (CUDC-101 + Vorinostat; first compound 0.1 µM) | relative viability (CUDC-101 + Vorinostat; first compound 0.3162 µM) | relative viability (CUDC-101 + Vorinostat; first compound 1 µM) | relative viability ([1]; first compound 0.005 µM) | relative viability ([1]; first compound 0.01581 µM) | relative viability ([1]; first compound 0.05 µM) | relative viability ([1]; first compound 0.1581 µM) | relative viability ([1]; first compound 0.5 µM) | relative viability (Vandetanib + Alpelisib; first compound 0.02 µM) | relative viability (Vandetanib + Alpelisib; first compound 0.06325 µM) | relative viability (Vandetanib + Alpelisib; first compound 0.2 µM) | relative viability (Vandetanib + Alpelisib; first compound 0.6325 µM) | relative viability (Vandetanib + Alpelisib; first compound 2 µM) |
| --- | --- | --- | --- | --- | --- | --- | --- | --- | --- | --- | --- | --- | --- | --- | --- | --- | --- | --- | --- | --- |
| HCC-366 | 0.136 | 0.121 | 0.142 | 0.13 | 0.119 | 0.393 | 0.312 | 0.29 | 0.313 | 0.254 | 0.428 | 0.475 | 0.314 | 0.475 | 0.389 | 0.44 | 0.289 | 0.328 | 0.528 | 0.226 |
| NCI-H1437 | 0.4 | 0.44 | 0.46 | 0.375 | 0.149 | 0.864 | 0.857 | 0.814 | 0.808 | 0.495 | 0.797 | 1.11 | 0.962 | 1.09 | 0.695 | 0.922 | 0.965 | 0.94 | 1 | 0.902 |
| EPLC-272H | 0.449 | 0.434 | 0.275 | 0.244 | 0.18 | 0.345 | 0.38 | 0.464 | 0.229 | 0.118 | 0.854 | 0.819 | 1.02 | 1.03 | 0.768 | 0.865 | 0.814 | 0.96 | 0.909 | 0.997 |
| NCI-H1703 | 0.228 | 0.252 | 0.244 | 0.293 | 0.299 | – | – | – | – | – | 0.338 | 0.31 | 0.344 | 0.362 | 0.357 | 0.306 | – | 0.347 | 0.284 | 0.222 |
| HCC-15 | 0.683 | 0.774 | 0.713 | 0.79 | 0.569 | 0.828 | 0.802 | 0.77 | 0.716 | 0.448 | 0.927 | 0.833 | 0.905 | 0.954 | 0.853 | 0.877 | 0.84 | 0.93 | 0.874 | 0.793 |
| NCI-H2347 | 0.711 | 0.658 | 0.794 | 0.436 | 0.569 | 0.741 | 0.583 | 0.631 | 0.415 | 0.46 | 1.1 | 0.992 | 0.954 | 1.05 | 1.18 | 1.01 | 0.591 | 1.05 | 1.28 | 1.03 |
| COR-L 105 | 0.466 | 0.376 | 0.352 | 0.313 | 0.189 | 0.921 | 0.663 | 0.831 | 0.611 | 0.371 | 1.06 | 1.22 | 0.856 | 0.955 | 0.678 | 1.04 | 0.864 | 0.998 | 0.932 | 0.425 |
| NCI-H1650 | 0.57 | 0.552 | 0.559 | 0.446 | 0.293 | 0.532 | 0.352 | 0.517 | 0.615 | 0.41 | – | – | – | – | – | – | – | – | – | – |
| NCI-H838 | 0.516 | 0.508 | 0.683 | 0.628 | 0.397 | 0.719 | 0.741 | 0.708 | 0.555 | 0.372 | 0.841 | 0.965 | 0.959 | 0.961 | 0.852 | 0.98 | 0.957 | 0.991 | 1.04 | 1.05 |
| NCI-H2009 | 0.813 | 0.824 | 0.963 | 0.917 | 0.699 | 0.766 | 0.639 | 0.764 | 0.705 | 0.506 | 1.13 | 1.22 | 1.18 | 1.16 | 1.12 | 1.16 | 1.07 | 1.2 | 1.15 | 1.15 |
| SK-MES-1 | 0.356 | 0.34 | 0.317 | 0.256 | 0.184 | 1.04 | 1.04 | 1.1 | 1.12 | 0.915 | 1.17 | 0.979 | 1.12 | 1.14 | 0.859 | 0.913 | 0.929 | 0.86 | 0.851 | 0.646 |
| H3255 | 0.618 | 0.382 | 0.143 | 0.181 | 0.0818 | 0.824 | 0.786 | – | 1.07 | 0.368 | 0.545 | 0.685 | 0.591 | 0.806 | 0.692 | 0.681 | 0.634 | 0.602 | 0.335 | 0.119 |
| Calu-6 | 0.944 | 0.869 | 0.929 | 0.764 | 0.522 | – | – | – | – | – | 0.957 | 0.921 | 0.921 | 1.03 | 0.998 | 0.99 | 1.01 | 0.881 | 0.895 | 0.843 |
| ChaGo-K-1 | 1.03 | 1.04 | 0.784 | 0.746 | 0.568 | 0.756 | 0.727 | 0.79 | 0.698 | 0.578 | – | – | – | – | – | – | – | – | – | – |
| NCI-H2342 | – | – | – | – | – | 0.737 | 0.663 | 0.773 | 0.685 | 0.703 | – | – | – | – | – | – | – | – | – | – |
| NCI-H1563 | 0.652 | 0.607 | 0.709 | 0.667 | 0.509 | – | – | – | – | – | 0.924 | 0.869 | 0.947 | 0.962 | 0.861 | 0.852 | 0.958 | 0.88 | 0.904 | 0.916 |
| EBC-1 | 0.43 | 0.325 | 0.328 | 0.159 | 0.0697 | – | – | – | – | – | 0.819 | 0.935 | 0.76 | 0.829 | 0.925 | 0.81 | 0.784 | 0.862 | 0.809 | 0.746 |
| SW 900 | – | – | – | – | – | 0.48 | 0.569 | 0.31 | 0.49 | 0.217 | – | – | – | – | – | – | – | – | – | – |
| A549 | 0.578 | 0.489 | 0.5 | 0.453 | 0.288 | – | – | – | – | – | 0.64 | 0.9 | 0.696 | 1.02 | 0.82 | 0.686 | 0.698 | 0.613 | 0.751 | 0.663 |
| NCI-H1648 | – | – | – | – | – | 0.631 | 0.378 | 0.333 | 0.225 | 0.22 | – | – | – | – | – | – | – | – | – | – |
